According to article PMC9775191, “A Subset Screen of the Compounds Australia Scaffold Library Identifies 7-Acylaminodibenzoxazepinones as Potent and Selective Hits for Anti-Giardia Drug Discovery” (Biomedicines, 2022):

Test system: G. duodenalis BRIS/91/HEPU/1279
Experiment: Primary Giardia screen at 10 µM (live-cell imaging, automated counting)
Assay type: cell-based, Giardia duodenalis
Conditions: 24 h
Outline: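 Compound added to 10 μM final in medium with 0.2% DMSO, one well each; plates then held in sealed chambers at 3% O2, 5% CO2 in N2; growth imaged and counted automatically at 24 and 48 h; values normalised to vehicle wells minus media blank.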

| SMILES | Average % Inhibition 24h |
| --- | --- |
| CCc1nc(-c2cc(S(=O)(=O)N(C)c3cccc(C)c3)c(C)s2)no1 [SN00789104] | 14.2% |
| O=C(c1cc2occc2c(Nc2ccc(F)cc2)n1)N1CCN(c2ccccn2)CC1 [SN00790827] | 14.2% |

Same assay, conditions: 24 h, first singlicate assay

| SMILES | % Inhibition n=1 24h |
| --- | --- |
| CCc1nc(-c2cc(S(=O)(=O)N(C)c3cccc(C)c3)c(C)s2)no1 [SN00789104] | 28.4% |
| O=C(c1cc2occc2c(Nc2ccc(F)cc2)n1)N1CCN(c2ccccn2)CC1 [SN00790827] | 21.9% |

Same assay, conditions: 24 h, re-assessment

| SMILES | % Inhibition n=2 24h |
| --- | --- |
| CCc1nc(-c2cc(S(=O)(=O)N(C)c3cccc(C)c3)c(C)s2)no1 [SN00789104] | 0.0% |
| O=C(c1cc2occc2c(Nc2ccc(F)cc2)n1)N1CCN(c2ccccn2)CC1 [SN00790827] | 6.5% |

Same assay, conditions: 48 h

| SMILES | Average % Inhibition 48h |
| --- | --- |
| CCc1nc(-c2cc(S(=O)(=O)N(C)c3cccc(C)c3)c(C)s2)no1 [SN00789104] | 30.8% |
| O=C(c1cc2occc2c(Nc2ccc(F)cc2)n1)N1CCN(c2ccccn2)CC1 [SN00790827] | 31.0% |

Same assay, conditions: 48 h, first singlicate assay

| SMILES | % Inhibition n=1 48h |
| --- | --- |
| CCc1nc(-c2cc(S(=O)(=O)N(C)c3cccc(C)c3)c(C)s2)no1 [SN00789104] | 48.8% |
| Cc1noc(-c2c(C)sc(C)c2S(=O)(=O)NCc2ccccc2)c1C [SN00789144] | 30.5% |
| COc1ccc(-n2ccn(CC(=O)Nc3ccc(OC)cc3OC)c2=O)cc1 [SN00789162] | 0.0% |
| Cc1ccccc1S(=O)(=O)N1CCC2(CC1)Nc1ccc(Cl)cc1-n1cccc12 [SN00789223] | 20.1% |
| COc1ccc2c(c1)NC1(CCN(C(=O)Cc3ccc(F)cc3)CC1)c1cccn1-2 [SN00789241] | 5.9% |
| CCc1nnc(-c2cc3ccccc3n2CC(=O)N2CCCc3ccccc32)o1 [SN00789262] | 0.0% |
| COC(=O)c1ccc(Cn2c(-c3nnc(C(C)C)o3)cc3ccccc32)cc1 [SN00789282] | 4.4% |
| CCn1nnc2cc(C(=O)N(C)CC(=O)NCc3cccc(C)c3)ccc21 [SN00789328] | 14.4% |
| O=C1COc2ccc(Cl)cc2N1Cc1nc(Cn2cnc3ccccc3c2=O)no1 [SN00789336] | 0.0% |
| CCOc1cccc(CC(=O)Nc2ccc3c(c2)C(=O)N(C)C2=NCCN23)c1OCC [SN00789358] | 35.6% |
| Cc1cc2c(cc1C)N(CC(=O)NCc1cccs1)C(=O)C1CCCC1=N2 (centres unmarked) [SN00789389] | 11.1% |
| CSc1ccc(-c2noc(-c3ccc4c(=O)n(Cc5ccccc5)c(=O)[nH]c4c3)n2)cc1 [SN00789400] | 6.5% |
| CCCCn1c(=O)[nH]c2cc(-c3nc(-c4ccc(F)cc4)no3)ccc2c1=O [SN00789403] | 0.3% |
| COc1ccc(Cn2c(=O)c3nccnc3n(Cc3cccc(C)c3)c2=O)cc1 [SN00789526] | 0.0% |
| CCOC(=O)c1csc(-n2nc(-c3cccc(OC(C)=O)c3)cc2C(F)(F)F)n1 [SN00789527] | 21.7% |
| COc1ccc(NC(=O)C2CCn3c(nc4ccccc43)C2)cc1Cl (centres unmarked) [SN00789545] | 0.0% |
| Cc1ccc(NC(=O)Cn2c(=O)n(Cc3ccc4c(c3)OCO4)c(=O)c3ncccc32)cc1 [SN00789565] | 0.0% |
| COc1ccc(CCn2c(=O)c3ncccc3n(Cc3ccc(C)cc3)c2=O)cc1OC [SN00789585] | 1.7% |
| CC(C)c1ccc(S(=O)(=O)N2CCN(c3cc(=O)n4nc(-c5ccccc5)sc4n3)CC2)cc1 [SN00789595] | 0.0% |
| COc1ccc(S(=O)(=O)N2CCN(c3cc(=O)n4nc(-c5ccccc5C)sc4n3)CC2)cc1 [SN00789606] | 10.6% |
| CCCNS(=O)(=O)c1cc(C(=O)N2CCCC2)cs1 [SN00789651] | 0.0% |
| Cc1ccc(S(=O)(=O)NC(C)c2nc(-c3cccc(C(=O)N4CCCC4)c3)no2)cc1 (centres unmarked) [SN00789753] | 5.7% |
| Cc1nc(-c2cccc(N3CC(C(=O)NCc4ccccc4)CC3=O)c2)no1 (centres unmarked) [SN00789781] | 0.0% |

| SMILES | % Inhibition n=1 48h |
| --- | --- |
| O=C(C1CC(=O)N(c2cccc(-c3noc(C4CCC4)n3)c2)C1)N1CCN(c2ccccc2F)CC1 (centres unmarked) [SN00789791] | 5.7% |
| COCCNC(=O)C1(C)Cn2c(cc3ccsc32)C(=O)N1c1ccc(OC)c(OC)c1 (centres unmarked) [SN00789817] | 0.0% |
| Cn1nc(C(=O)NCc2ccc3c(c2)OCO3)c2c1CCN(C(=O)C1CCCC1)C2 [SN00789838] | 7.0% |
| Cc1ccc(NS(=O)(=O)c2ccc(-c3nnc(C)o3)s2)cc1 [SN00789919] | 5.1% |
| COc1ccc(NC(=O)c2cn(-c3ccc(-c4noc(C5CCCC5)n4)cc3)nc2C)cc1OC [SN00789967] | 25.5% |
| Cc1c(N2CCC(C(=O)NC3CCCCCC3)CC2)c(=O)n(CC(C)C)c(=O)n1-c1ccccc1 [SN00790002] | 9.5% |
| CCc1ccc(-c2cc(C(=O)N3CCN(c4c(C)n(-c5ccccc5)c(=O)n(C)c4=O)CC3)[nH]n2)cc1 [SN00790031] | 0.0% |
| O=C(NCCC1=CCCCC1)C1CCN(c2nc3cccnc3n(Cc3ccccc3)c2=O)CC1 [SN00790039] | 11.4% |
| Cc1noc(C)c1CCNC(=O)C1CCN(c2nc3cccnc3n(C)c2=O)CC1 [SN00790058] | 15.0% |
| CCn1c(=O)c(N2CCCC(C(=O)NCCc3c[nH]c4ccccc34)C2)nc2ccccc21 (centres unmarked) [SN00790077] | 9.8% |
| COc1cc(NC(=O)C2CCCN(c3nc4ccccc4[nH]c3=O)C2)cc(OC)c1 (centres unmarked) [SN00790089] | 0.0% |
| O=C(Cc1cccs1)Nc1ccc(N2CCN(c3ccccc3F)CC2)cc1C(=O)O [SN00790111] | 0.0% |
| Cc1ccc(-n2nc(N3CCC(C(=O)NCC4CCCO4)CC3)ccc2=O)cc1Cl (centres unmarked) [SN00790174] | 0.0% |
| O=C(Nc1ccc2nc(N3CCCN(c4ncccn4)CC3)cc(C(=O)O)c2c1)c1ccccc1F [SN00790270] | 0.0% |
| COc1ccccc1CN1CCN(c2cc(C(=O)O)c3cc(NC(C)=O)ccc3n2)CC1 [SN00790290] | 39.8% |
| Cc1ccc(CN2CCN(C(=O)C3CCC3)c3cccnc32)cc1 [SN00790417] | 4.2% |
| COc1ccc(OCC(=O)N2CCN(Cc3ccc(C)cc3)c3ncccc32)cc1 [SN00790421] | 6.7% |
| COc1ccc(S(=O)(=O)N2CCN(Cc3ccc(C)cc3)c3ncccc32)cc1 [SN00790428] | 10.3% |
| O=S(=O)(c1ccc(F)cc1)N1CCN=C1N1CCCCC1 [SN00790442] | 15.7% |
| O=C(Nc1cccc(F)c1)c1nnc(C2CCCN2C(=O)Nc2cccc(C(F)(F)F)c2)s1 (centres unmarked) [SN00790473] | 8.5% |
| Cc1ccc(NC(=O)c2nnc(C3CCCN3C(=O)NC3CCCC3)s2)cc1 (centres unmarked) [SN00790483] | 4.4% |
| CCOc1ccc(-n2c(=O)c3sc4ncccc4c3n(CC(=O)NC3CCCCC3)c2=O)cc1 [SN00790499] | 13.5% |
| CCOc1ccc(-n2c(=O)c3sc4ncccc4c3n(CC(=O)N3CCCCC3)c2=O)cc1 [SN00790501] | 5.1% |

| SMILES | % Inhibition n=1 48h |
| --- | --- |
| CSc1ccc(CNC(=O)C2CCN(S(=O)(=O)c3ccc(-c4ccn[nH]4)o3)CC2)cc1 [SN00790551] | 11.7% |
| O=c1c2cc(-c3cccs3)nn2ccn1Cc1nc(-c2cccc(F)c2)no1 [SN00790579] | 8.1% |
| Cc1ccc(Cn2nnc3c(=O)n(Cc4nc(-c5ccccc5)no4)cnc32)cc1 [SN00790594] | 2.1% |
| COc1ccccc1-c1noc(Cn2cnc3c(nnn3Cc3ccccc3)c2=O)n1 [SN00790613] | 6.5% |
| Cc1ccccc1CS(=O)(=O)Cc1ccc(-c2nc(-c3ccc(Br)cc3)no2)o1 [SN00790667] | 0.0% |
| O=C(CC1COc2ccccc2N1Cc1ccccc1)N1CCc2ccccc2C1 (centres unmarked) [SN00790679] | 0.0% |
| CN1c2ccccc2OCC1CC(=O)Nc1ccc(F)cc1 (centres unmarked) [SN00790682] | 7.6% |
| CCCc1nnc(C(=O)Nc2cccc(C(=O)NCc3c[nH]nc3C)c2)s1 [SN00790723] | 0.0% |
| CCOc1ccc(CNC(=O)c2cccc(NC(=O)c3nnc(C4CC4)s3)c2)cc1 [SN00790732] | 0.0% |
| Cc1nn(C(C)C)c(C)c1S(=O)(=O)N1CCN(C(=O)c2cccs2)CC1 [SN00790783] | 3.8% |
| Cc1cccc(N(C)S(=O)(=O)c2cc(-c3ccno3)sc2C)c1 [SN00790813] | 6.1% |
| CCN1CCN(CCCNC(=O)c2cc3occc3c(Nc3ccc(OC)cc3)n2)CC1 [SN00790822] | 14.5% |
| O=C(c1cc2occc2c(Nc2ccc(F)cc2)n1)N1CCN(c2ccccn2)CC1 [SN00790827] | 53.8% |
| Cc1ccc(CNC(=O)C2CCN(c3ncccc3-n3cccc3)CC2)cc1 [SN00790865] | 0.0% |
| CCC(C)NC(=O)N1CCc2c(sc3nc(-c4ccc(C)cc4)nn23)C1 (centres unmarked) [SN00790900] | 10.9% |
| CCNC(=O)N1CCCC(c2cccc(C(=O)NCCC3=CCCCC3)c2)C1 (centres unmarked) [SN00790923] | 6.9% |
| CCOC(=O)c1cccc(NC(=O)c2cnc(C)nc2C)c1 [SN00790942] | 0.0% |
| Cc1ccc(-c2ncc(C(=O)NC3CCCCCC3)c(C)n2)cc1 [SN00790958] | 0.0% |
| CCc1nc(-c2ccc3c(c2)CCN3C(=O)CCc2ccc(OC)cc2)no1 [SN00790989] | 14.1% |
| COc1ccccc1-c1cc(C(=O)N2CCCN(c3ccc(=O)n(-c4ccc(C)c(C)c4)n3)CC2)[nH]n1 [SN00791007] | 8.7% |
| Cc1c(-c2nc(-c3cccnc3)no2)oc2ccc(S(=O)(=O)N3CCOCC3)cc12 [SN00791042] | 1.1% |

Same assay, conditions: 48 h, re-assessment

| SMILES | % Inhibition n=2 48h |
| --- | --- |
| CCc1nc(-c2cc(S(=O)(=O)N(C)c3cccc(C)c3)c(C)s2)no1 [SN00789104] | 12.8% |
| O=C(c1cc2occc2c(Nc2ccc(F)cc2)n1)N1CCN(c2ccccn2)CC1 [SN00790827] | 8.1% |
